Source: patent US20260232594A1, “EXCIPIENT COMPOSITION FOR THE PREPARATION OF AMORPHOUS SOLID DISPERSONS/SOLUTIONS” (UNIVERSITÄTSKLINIKUM HAMBURG-EPPENDORF, priority 2023, published 2026)
Counter-ions that a name gives are not always drawn.

Legend:
[1] = Extrusion experiments with BZ in place of CD, extrudate analyzed via HPLC; type: physicochemical; details: extrusion 125-155° C.
Procedure: For LD and BZ analytics a separate HPLC method was developed for the same equipment. The mobile phase was a 95:5 mixture of aforementioned hydrogen phosphate buffer (pH 2.5) and methanol. LD was detected at 280 nm and BZ at 268 nm. Retention times were 3.41 min (BZ) and 4.41 min (LD). The calibration for LD was the same as in the above-named method and BZ was calibrated in the same range as CD.
Following the dissolution experiments and the subsequently adapted thermoanalyses to further investigate the thermolability of CD, extrusion experiments with BZ were conducted. For these experiments, the CD (P25/29-M) was substituted with BZ. The formulation was extruded between 125-155° C. and the extrudate analyzed via HPLC.

[2] = type: physicochemical
Procedure: DSC analyzes were carried out with a DSC 1 device (Mettler-Toledo, LLC, Columbus, OH, USA) operated with STARe Software V16.10. Each single component of the formulation as well as the powder blend and the extruded filament (both P25/29-M) were analyzed. Three different methods were utilized. Nitrogen was used as a purging gas at a flow rate of 50 mL/min. Every sample was heated to 250° C. (10° C./min) and kept at this temperature for 5 min. CD, LD, mannitol and the powder blend were also heated (10° C./min) to and kept at 185° C. (10 min), then cooled to 25° C. (20° C./min) and kept at this temperature for 5 min and reheated to 185° C. (10° C./min) and kept at this temperature for 10 min. Ultimately, CD and the powder blend were also heated to 182° C. (10° C./min) and kept at this temperature for 30 min.

[3] = Particle size analysis by laser light diffraction; type: physicochemical; details: Fraunhofer method
Procedure: Laser diffraction measurements were performed with a LS 13 320 laser diffraction particle size analyzer equipped with a Tornado DPS module (Beckman Coulter Inc, Brea, CA, USA). Each API, excipient and the blend of batch P25/29-M were measured five times. Particle sizes were calculated using the Fraunhofer method.

[4] = 3D printing of tablets by direct powder extrusion (DPE): printability and API tolerance; details: printing temperature 180° C.
From the text: The previously blended powders were 3D printed using a M3DIMAKER™ equipped with a DPE printhead coupled with a 0.4 mm nozzle (FabRx Ltd., London, United Kingdom). Computer-aided design (CAD) models of tablets were designed using Autodesk Tinkercad (Autodesk Inc., Mill Valley, CA, U.S.A.) and processed with Repetier-Host software (Hot-World GmbH & Co. KG, Willich, Germany). To enhance powder flow, the M3DIMAKER™ was modified with a stirring element 4 (see FIG. 1).
Tablets were printed using the following parameters: printing temperature: 180° C.; first layer height: 0.6 mm, layer height: 0.15-0.30 mm (adaptive slicing), infill: 60-100%, travel speed 70 mm/s, first layer speed 5 mm/s, perimeter speed 7.5-15 mm/s, infill speed: 15-20 mm/s with zero (Oblongs) or one (Cylinders and Donuts) top layer, two bottom layers and two shells.

[5] = Dissolution of printed tablets, Ph. Eur. 2.9.3, 0.1 M HCl, paddle 100 rpm, HPLC; type: physicochemical
Procedure: Dissolution experiments were carried out according to Ph. Eur. 10.6; 2.9.3 (EDQM, Ph. Eur.), with a Premiere 5100 Dissolution System (Distek Inc., North Brunswick Township, NJ, USA). […] The paddle speed was set to 100 rpm. Samples were taken after 5, 10, 15, 20, 30, 45, 60 and 90 min. A sinker was used for analyzes. For all small tablets and the large Oblongs a Distek “Japanese Basket” was used, whereas a custom 3D printed polylactic acid (PLA) sinker (not shown) was used for the large Cylinders and the large Donuts. If applicable, the dissolution profiles were compared using the f2 comparison (Moore and Flanner 1996).
The API content of the powder blend and the dissolution samples were analyzed and evaluated with a Nexera XR HPLC system and LabSolutions software version 6.83 (both Shimadzu Corp., Nakagyo-ku, Kyoto, Japan). The Nexera XR HPLC system consists of two degassing units (DGU-20A5R) and two HPLC-pumps (LC-20ADXR) as well as an autosampler (SIL-20ACXR) a column oven (FCV-34AH) and a communication bus module (CBM-20A). Samples were dissolved and diluted in 0.1 M HCl. Turbid samples were filtered through a 0.22 μm PTFE Filter. Prior to each analytical sequence, the column was equilibrated for 30 min and the autosampler purged for 5 min. HPLC samples were measured in duplicate with an injection volume of 20 μL. […]

[6] = Stability analysis: storage in constant climate chambers, API content by HPLC; type: physicochemical; details: in P25/29-M small Donuts
Procedure: Small Donuts of P25/29-M were packed in FDS/Proud packaging material Unit Dose Bags (UDB) using a FDS II Proud 336 device (Baxter International Inc., Deerfield, Il, USA) or brown glass stored in constant climate chambers (KBF P 240 and KBF S 240; Binder GmbH; Tuttlingen, Germany). […] Samples packed in UDB were stored for 7 days or 28 days in each of the previously mentioned conditions. Samples in brown glass were stored for 28 days in the 25° C./60% RH condition. After storage, the API contents of the samples were analyzed via HPLC as described in 2.2.6. Each sampling time comprised three samples.

[7] = Thermogravimetric analysis (TGA), thermal stability; type: physicochemical; details: for temperature at which mass loss / decomposition starts (thermogram): 40 to 300° C.
Procedure: TGA analyzes were carried out with a Discovery TGA (TA Instruments, Waters, LLC, U.S.A.) and data was collected and analyzed with TA Instruments Trios software and percent mass loss or onset temperature were calculated. Two different methods were utilized. Both APIs were subjected to a temperature ramp of 10° C./min starting at 40° C. and concluding at 300° C. in open aluminum pans. CD was additionally subjected to an isothermal stress test at 180° C. for 30 min.

NC(CO)C(=O)NNCc1ccc(O)c(O)c1O (stereo not shown) [BZ, Benserazide-HCl]
substance lost during extrusion [1]: More than 70%

C[C@@](Cc1ccc(O)c(O)c1)(NN)C(=O)O [CD, Carbidopa]
time of exposition until decomposition begins (isothermal DSC) ([2]; 182° C. isothermal): 7 to 8 min
particle size d50 [3]: 15.3 μm
tolerance of the printing process (in words) [4]: degraded partially during the printing process
substance lost during extrusion ([5]; CD, much higher extrusion temperatures (printing 180° C.)): 30-40%
CD recovered from the completely dissolved tablets ([5]; after the printing process): 60-70%
storage stability (in words) ([6]; brown glass, and 25/60, 7 in UDB): moderate stability
loss in mass over the first 10 min (isothermal TGA) ([7]; 180° C. isothermal): more than 20%
mass loss in the thermogram (release of hydrate water) ([7]; between ca. 90-140° C., ramp 10° C./min): about 8%
temperature at which mass loss / decomposition starts (thermogram) ([7]; ramp 10° C./min): about 195 °C

N[C@@H](Cc1ccc(O)c(O)c1)C(=O)O [LD, Levodopa]
temperature up to which no degradation was found (DSC and TGA) [2]: > 250 °C
particle size d50 [3]: 51.8 μm
tolerance of the printing process (in words) [4]: able to tolerate the printing temperature
storage time tolerated ([6]; both conditions (25/60, 40/75) and packagings): at least 28 days
temperature at which mass loss / decomposition starts (thermogram) ([7]; ramp 10° C./min): about 275 °C

OC[C@@H](O)[C@@H](O)[C@H](O)[C@H](O)CO [mannitol, Mannitol]
particle size d50 [3]: 345 μm
